Measured values as given in ChEMBL document CHEMBL1201862, “PubChem BioAssay data set” (2004).
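48-hour exposure; five concentrations; linearly interpolated endpoints. Here, GI50 denotes the concentration required for 50% inhibition of growth.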 Active and inactive are the calls of the source. No stated cut-off is given here; in the data, active = GI50 up to about 1.1 µM and inactive = higher.

Columns and labels:
Assay in all cases: NCI tumour cell line growth inhibition, 48 h
CAKI-1 = tested on: CAKI-1
HCT-15 = tested on: HCT-15
HOP-92 = tested on: HOP-92
IGROV-1 = tested on: IGROV-1
K562 = tested on: K562
KM12 = tested on: KM12
LOX IMVI = tested on: LOX IMVI
NCI-H226 = tested on: NCI-H226
NCI-H23 = tested on: NCI-H23
OVCAR-8 = tested on: OVCAR-8
RXF 393 = tested on: RXF 393
SF-268 = tested on: SF-268
SK-MEL-2 = tested on: SK-MEL-2
SN12C = tested on: SN12C
TK-10 = tested on: TK-10
UACC-257 = tested on: UACC-257
UO-31 = tested on: UO-31
Hs-578T = tested on: Hs-578T
MDA-MB-435 = tested on: MDA-MB-435
SK-MEL-5 = tested on: SK-MEL-5

Compound | GI50 (CAKI-1) | GI50 (HCT-15) [µM] | GI50 (HOP-92) | GI50 (IGROV-1) | GI50 (K562) | GI50 (KM12) | GI50 (LOX IMVI) | GI50 (NCI-H226) | GI50 (NCI-H23) | GI50 (OVCAR-8) | GI50 (RXF 393) | GI50 (SF-268) | GI50 (SK-MEL-2) | GI50 (SN12C) | GI50 (TK-10) | GI50 (UACC-257) | GI50 (UO-31) | GI50 (Hs-578T) | GI50 (MDA-MB-435) | GI50 (SK-MEL-5)
O=C(CO[N+](=O)[O-])OC/C=C/c1ccccc1 | > 100 µM (inactive) | > 100 | > 100 µM (inactive) | > 100 µM (inactive) | > 100 µM (inactive) | > 100 µM (inactive) | > 100 µM (inactive) | > 100 µM (inactive) | > 100 µM (inactive) | > 100 µM (inactive) | > 100 µM (inactive) | > 100 µM (inactive) | > 100 µM (inactive) | > 100 µM (inactive) | > 100 µM (inactive) | > 100 µM (inactive) | > 100 µM (inactive) | – | – | –
CCOC(=O)/C(=C\NC(=S)Nc1ccc(Cl)c(Cl)c1)C(=O)c1ccccc1 | 12.9 µM (inactive) | 29.1 | – | 33 µM (inactive) | 10 µM (inactive) | 26.5 µM (inactive) | 69.7 µM (inactive) | 13.9 µM (inactive) | 8.61 µM (inactive) | 47.6 µM (inactive) | 21.6 µM (inactive) | 26.6 µM (inactive) | 21.7 µM (inactive) | 46.5 µM (inactive) | – | 34 µM (inactive) | 1.52 µM (inactive) | 2.11 µM (inactive) | 17.7 µM (inactive) | 27.1 µM (inactive)
CCOC(=O)[C@@H]1C2C(=C[C@H]3[C@H]1C(=O)N1CCCC[C@H]31)CCCN2C(=O)OCc1ccccc1 (stereo not given in full) | 43.1 µM (inactive) | 32.8 | 76.4 µM (inactive) | 41.3 µM (inactive) | 30.8 µM (inactive) | 36.2 µM (inactive) | 33.3 µM (inactive) | 70.5 µM (inactive) | 29.3 µM (inactive) | 35.5 µM (inactive) | 47.8 µM (inactive) | 23.3 µM (inactive) | 22.8 µM (inactive) | 47.5 µM (inactive) | 75.9 µM (inactive) | 37.6 µM (inactive) | 32.8 µM (inactive) | – | 35 µM (inactive) | 31.6 µM (inactive)
C[C@@H](NC(=O)Nc1cccc(C(=O)Nc2cc(C(C)(C)C)ccc2C(=O)O)n1)c1ccccc1 | 82.2 µM (inactive) | 44.2 | – | 37.9 µM (inactive) | 42.5 µM (inactive) | 55.1 µM (inactive) | 19.3 µM (inactive) | 38.3 µM (inactive) | 41.7 µM (inactive) | 40.6 µM (inactive) | 21.5 µM (inactive) | 46.8 µM (inactive) | 18.1 µM (inactive) | 49.8 µM (inactive) | – | – | 40.1 µM (inactive) | 40.4 µM (inactive) | 37.3 µM (inactive) | 30.1 µM (inactive)
NC(=O)C(=Cn1c(=S)[nH]c2ccc([N+](=O)[O-])cc21)C(N)=O | > 100 µM (inactive) | > 100 | > 100 µM (inactive) | > 100 µM (inactive) | – | > 100 µM (inactive) | > 100 µM (inactive) | 28.8 µM (inactive) | > 100 µM (inactive) | > 100 µM (inactive) | > 100 µM (inactive) | > 100 µM (inactive) | > 100 µM (inactive) | > 100 µM (inactive) | > 100 µM (inactive) | > 100 µM (inactive) | > 100 µM (inactive) | – | > 100 µM (inactive) | > 100 µM (inactive)
CC(=O)NC(C=O)C(O[C@H](C)C(=O)NC(C)C(=O)NC(CCC(N)=O)C(=O)OCc1ccccc1)C(O)C(O)COC(=O)CCNc1c2ccccc2nc2cccc([N+](=O)[O-])c12 (stereo not given in full) | 1.45 µM (inactive) | 11.4 | 2.31 µM (inactive) | > 100 µM (inactive) | 2.51 µM (inactive) | 1.91 µM (inactive) | 14.6 µM (inactive) | 2.6 µM (inactive) | 2.47 µM (inactive) | 4.89 µM (inactive) | 3.96 µM (inactive) | 1.79 µM (inactive) | 1.63 µM (inactive) | 2.02 µM (inactive) | 13.6 µM (inactive) | 7.46 µM (inactive) | 16.9 µM (inactive) | – | – | > 100 µM (inactive)
OC1CCC(COC(c2ccccc2)(c2ccccc2)c2ccccc2)O1 (stereo not given) | 17.1 µM (inactive) | 16.9 | – | 18.2 µM (inactive) | 14.8 µM (inactive) | 17.7 µM (inactive) | 15.4 µM (inactive) | 24.2 µM (inactive) | 18 µM (inactive) | 17.9 µM (inactive) | – | 16.9 µM (inactive) | 18.1 µM (inactive) | 19.2 µM (inactive) | > 10 µM (inactive) | 16.8 µM (inactive) | 17.3 µM (inactive) | 16.6 µM (inactive) | 21.5 µM (inactive) | 16.9 µM (inactive)
N#CC(C#N)=c1[nH]c2cccc3c2-c2c(cccc2c3=C(C#N)C#N)[nH]1 | > 100 µM (inactive) | > 100 | > 100 µM (inactive) | > 100 µM (inactive) | > 100 µM (inactive) | > 100 µM (inactive) | > 100 µM (inactive) | > 100 µM (inactive) | > 100 µM (inactive) | > 100 µM (inactive) | 79.6 µM (inactive) | > 100 µM (inactive) | – | > 100 µM (inactive) | > 100 µM (inactive) | > 100 µM (inactive) | > 100 µM (inactive) | – | – | > 100 µM (inactive)
COc1ccc(CCC2c3cc(OC)c(OC)cc3CCN2C)cc1OC (stereo not given) | > 100 µM (inactive) | > 100 | 46 µM (inactive) | > 100 µM (inactive) | > 100 µM (inactive) | > 100 µM (inactive) | > 100 µM (inactive) | > 100 µM (inactive) | > 100 µM (inactive) | > 100 µM (inactive) | > 100 µM (inactive) | > 100 µM (inactive) | > 100 µM (inactive) | > 100 µM (inactive) | > 100 µM (inactive) | > 100 µM (inactive) | > 100 µM (inactive) | – | – | > 100 µM (inactive)
Cn1c(=O)n2c(=O)n(C)c(=O)n2c1=O | > 100 µM (inactive) | > 100 | – | > 100 µM (inactive) | > 100 µM (inactive) | > 100 µM (inactive) | > 100 µM (inactive) | > 100 µM (inactive) | > 100 µM (inactive) | > 100 µM (inactive) | > 100 µM (inactive) | > 100 µM (inactive) | > 100 µM (inactive) | > 100 µM (inactive) | > 100 µM (inactive) | > 100 µM (inactive) | > 100 µM (inactive) | > 100 µM (inactive) | > 100 µM (inactive) | > 100 µM (inactive)
COc1ccc(O[C@H](CO)C[C@@H]2COC(C)(C)O2)cc1 | > 100 µM (inactive) | > 100 | – | > 100 µM (inactive) | > 100 µM (inactive) | > 100 µM (inactive) | > 100 µM (inactive) | > 100 µM (inactive) | > 100 µM (inactive) | > 100 µM (inactive) | > 100 µM (inactive) | > 100 µM (inactive) | > 100 µM (inactive) | > 100 µM (inactive) | > 100 µM (inactive) | > 100 µM (inactive) | > 100 µM (inactive) | – | > 100 µM (inactive) | > 100 µM (inactive)
CC1CC(OP(=O)(OCc2ccccc2)OCc2ccccc2)[C@@H](OCc2ccccc2)C(OCc2ccccc2)C1OCc1ccccc1 (stereo not given in full) | > 100 µM (inactive) | > 100 | – | 64.7 µM (inactive) | 76.9 µM (inactive) | – | > 100 µM (inactive) | > 100 µM (inactive) | 25.3 µM (inactive) | > 100 µM (inactive) | 0.0555 µM (active) | 62.7 µM (inactive) | > 100 µM (inactive) | > 100 µM (inactive) | 22.2 µM (inactive) | 76.6 µM (inactive) | 15.5 µM (inactive) | 79.8 µM (inactive) | – | 62.5 µM (inactive)
CN(C)/C=N/c1nc2ncn(CCOC(=O)c3ccccc3)c2c(=O)[nH]1 | > 100 µM (inactive) | > 100 | > 100 µM (inactive) | > 100 µM (inactive) | > 100 µM (inactive) | > 100 µM (inactive) | > 100 µM (inactive) | > 100 µM (inactive) | – | > 100 µM (inactive) | > 100 µM (inactive) | > 100 µM (inactive) | > 100 µM (inactive) | > 100 µM (inactive) | > 100 µM (inactive) | > 100 µM (inactive) | > 100 µM (inactive) | – | – | > 100 µM (inactive)
Cc1nnc(N/N=C2/C(=O)Nc3c(Cl)cc(Cl)cc32)n1N | 81.1 µM (inactive) | > 100 | > 100 µM (inactive) | > 100 µM (inactive) | > 100 µM (inactive) | > 100 µM (inactive) | > 100 µM (inactive) | > 100 µM (inactive) | > 100 µM (inactive) | > 100 µM (inactive) | 59.2 µM (inactive) | > 100 µM (inactive) | > 100 µM (inactive) | > 100 µM (inactive) | > 100 µM (inactive) | > 100 µM (inactive) | > 100 µM (inactive) | – | – | –
OCC(O)C(Cl)CCl (stereo not given) | > 100 µM (inactive) | > 100 | – | > 100 µM (inactive) | > 100 µM (inactive) | > 100 µM (inactive) | – | > 100 µM (inactive) | > 100 µM (inactive) | > 100 µM (inactive) | – | > 100 µM (inactive) | – | > 100 µM (inactive) | > 100 µM (inactive) | > 100 µM (inactive) | > 100 µM (inactive) | > 100 µM (inactive) | – | > 100 µM (inactive)
Nc1nc(O)nc2sc3c(c12)CCCC3 | – | > 100 | > 100 µM (inactive) | 87.7 µM (inactive) | 61.4 µM (inactive) | 33.3 µM (inactive) | – | 4.57 µM (inactive) | > 100 µM (inactive) | > 100 µM (inactive) | > 100 µM (inactive) | 90.4 µM (inactive) | > 100 µM (inactive) | 73.3 µM (inactive) | 92 µM (inactive) | 63.1 µM (inactive) | 81.7 µM (inactive) | 23.6 µM (inactive) | – | > 100 µM (inactive)
